PubChem BioAssay AID1918996 (Molecular Pharmacology Branch, DTP, NCI, 2023)

Test system: 349418-098-R-PDC complex spheroid growth
Experiment: Anticancer human tumor 349418-098-R-PDC patient-derived lung adenocarcinoma cell line growth inhibition [AhR]
Conditions: for IC50: curve of first compound; for viability, T/C: stronger effect = lower value
Text: Multicellular complex tumor spheroid response to aryl hydrocarbon receptor antagonists in combination with a variety of drugs and investigational agents in selected tumor cell lines
The current study was undertaken to assess response to aryl hydrocarbon receptor antagonists in combination with standard-of-care drugs and investigational agents in solid tumor complex spheroid models. Complex spheroids include a stromal component modeled by human endothelial cells (HUVEC) and fibroblasts modeled by human mesenchymal stem cells (MSCs). The concentration ranges selected for each drug and investigational agent were based upon clinically achievable concentrations if the clinical Cmax of the agent was known.
Compounds. The drugs and investigational agents: BAY 2416964 (NSC825713), GNF351 (NSC835774), CH-223191 (NSC835775), CPI-455 (NSC825282), aza-TdCyd (NSC777586), decitabine (NSC127716), belinostat (NSC758774), entinostat (NSC756642), pevonedistat (NSC761192), tazemetostat (NSC777109), talazoparib (NSC765396), olaparib (NSC753686), selinexor (NSC780203), nedisertib (M3814, NSC802822), bortezomib (NSC756655), venetoclax (NSC766270), doxorubicin (NSC123127), elimusertib (BAY189344, NSC800525), ceralasertib (AZD6738, NSC777638), TAK-243 (NSC785004), alisertib (NSC759677), etoposide (NSC141540), topotecan (NSC609699), eribulin (NSC707389), gemcitabine (NSC613327), carboplatin (NSC241240), cisplatin (NSC119875), and SN-38 (NSC673596) were obtained from the National Cancer Institute (NCI) Developmental Therapeutics Program Chemical Repository (32). The FDA-approved anticancer drug set is available from the Developmental Therapeutics Program at https://dtp.cancer.gov/organization/dscb/obtaining/available plates.htm. […] The stock solutions were prepared in dimethyl sulfoxide (DMSO, Sigma-Aldrich, St. Louis, MO, cat. D2650), except for the platinum compounds which were prepared in saline (Quality Biological, Gaithersburg, MD, cat. 114-055-101), at 800-fold the tested concentration and stored at -70 degrees C prior to their use. All drugs and investigational agents were tested over a range starting from a high concentration at or near the clinical Cmax and decreasing in half-log increments. If the clinical Cmax for an agent had not been determined, the highest concentration tested was 10 microM (Table 1).
Cell Culture. All cells were maintained in an incubator at 37 degrees C and 5% CO2 with 95% humidity. The PDC lines were cultured according to standard operating procedures established by the NCI PDMR (https://pdmr.cancer.gov). Briefly, all PDCs were thawed and cultured in Matrigel-coated flasks prepared with a working solution of 1X Ham's F-12 nutrient mix, without supplementation (Invitrogen, Waltham, MA, cat. 11765054), 100 U/mL penicillin-streptomycin (Invitrogen, cat. 15140122), and 2.5% Matrigel (Corning Inc., Corning, NY, cat. 354248) for the first three passages. All PDCs were cultured in complete DMEM/F-12 media containing advanced DMEM/F-12 (Invitrogen, cat. 12634028), 4.9% defined fetal bovine serum, heat inactivated (HyClone Laboratories Inc., Logan, UT, cat. SH30070.03HI), 389 ng/mL hydrocortisone (Sigma-Aldrich, cat. H4001), 9.7 ng/mL human EGF recombinant protein (Invitrogen, cat. PHG0313), 23.4 microg/mL adenine (Sigma-Aldrich, cat. A2786), 97.3 U/mL penicillin-streptomycin (Invitrogen, cat. 15140122), 1.9 mM L-glutamine (Invitrogen, cat. 25030081), and 9.7 microM Y-27632 dihydrochloride (Tocris Bioscience, Bristol, United Kingdom, cat. 1254). The PDCs were cultured in complete DMEM/F12 media without 10 microM Y-27632 dihydrochloride for at least two passages prior to the screen. The established cell lines NCI-H1341 and […] were cultured in DMEM/F-12, HEPES (Invitrogen, cat. 11330032), 5% defined fetal bovine serum (HyClone Laboratories Inc., cat. SH30070.03), ITS premix universal culture supplement [insulin (5 microg/mL), transferrin (5 microg/mL), and selenious acid (5 ng/mL)] […]

[1] = second compound 0.1 µM, first compound 0.0316 µM
[2] = second compound 0.1 µM, first compound 0.1 µM
[3] = second compound 0.1 µM, first compound 0.316 µM
[4] = second compound 0.1 µM, first compound 1 µM
[5] = second compound 0.1 µM, first compound 3.16 µM
[6] = second compound 0.1 µM, first compound 10 µM
[7] = second compound 0.316 µM, first compound 0.0316 µM
[8] = second compound 0.316 µM, first compound 0.1 µM
[9] = second compound 0.316 µM, first compound 0.316 µM
[10] = second compound 0.316 µM, first compound 1 µM
[11] = second compound 0.316 µM, first compound 3.16 µM
[12] = second compound 0.316 µM, first compound 10 µM
[13] = second compound 1 µM, first compound 0.0316 µM
[14] = second compound 1 µM, first compound 0.1 µM
[15] = second compound 1 µM, first compound 0.316 µM
[16] = second compound 1 µM, first compound 1 µM
[17] = second compound 1 µM, first compound 3.16 µM
[18] = second compound 1 µM, first compound 10 µM
[19] = second compound 3.16 µM, first compound 0.0316 µM
[20] = second compound 3.16 µM, first compound 0.1 µM
[21] = second compound 3.16 µM, first compound 0.316 µM
[22] = second compound 3.16 µM, first compound 1 µM
[23] = second compound 3.16 µM, first compound 3.16 µM
[24] = second compound 3.16 µM, first compound 10 µM
[25] = second compound 10 µM, first compound 0.0316 µM
[26] = second compound 10 µM, first compound 0.1 µM
[27] = second compound 10 µM, first compound 0.316 µM
[28] = second compound 10 µM, first compound 1 µM
[29] = second compound 10 µM, first compound 3.16 µM
[30] = second compound 10 µM, first compound 10 µM
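Further: spheroids exposed to agents for seven days before luminescence viability read.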
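Wherever viability, T/C is given: spheroids also contain HUVEC endothelial cells and human MSC stroma.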

IC50 (second compound 0.1 µM) [nM]	IC50 (second compound 0.316 µM) [nM]	IC50 (second compound 1 µM) [nM]	IC50 (second compound 3.16 µM) [nM]	IC50 (second compound 10 µM) [nM]	Compound	viability, T/C [1] [%]	viability, T/C [2] [%]	viability, T/C [3] [%]	viability, T/C [4] [%]	viability, T/C [5] [%]	viability, T/C [6] [%]	viability, T/C [7] [%]	viability, T/C [8] [%]	viability, T/C [9] [%]	viability, T/C [10] [%]	viability, T/C [11] [%]	viability, T/C [12] [%]	viability, T/C [13] [%]	viability, T/C [14] [%]	viability, T/C [15] [%]	further results
< 31.6	< 31.6	< 31.6	< 31.6	< 31.6	Nc1ccn(C2OC(CO)C(O)C2(F)F)c(=O)n1 (stereo not given) + CC(CO)NC(=O)c1cc(-c2ccc(Cl)cc2)nn(-c2cnn(C)c2)c1=O	11.7	13.3	12.8	10.8	9.89	7.31	11.5	12.5	13.3	10.6	9.24	6.37	12.7	13.5	13.3	viability, T/C [16]: 11.2%; viability, T/C [17]: 8.78%; viability, T/C [18]: 5.77%; viability, T/C [19]: 12.1%; viability, T/C [20]: 13.4%; viability, T/C [21]: 12.8%; viability, T/C [22]: 9.14%; viability, T/C [23]: 7.92%; viability, T/C [24]: 7.72%; viability, T/C [25]: 12.3%; viability, T/C [26]: 11%; viability, T/C [27]: 11.6%; viability, T/C [28]: 8.92%; viability, T/C [29]: 7.77%; viability, T/C [30]: 8.23%
> 10000	5210	7430	3540	482	O=C(c1cc(Cc2n[nH]c(=O)c3ccccc23)ccc1F)N1CCN(C(=O)C2CC2)CC1 + CC(CO)NC(=O)c1cc(-c2ccc(Cl)cc2)nn(-c2cnn(C)c2)c1=O	84.2	81.6	82.8	101	64.2	60.1	101	101	89.7	64.4	63.6	39.2	95.5	74.4	73.7	viability, T/C [16]: 66.9%; viability, T/C [17]: 59.8%; viability, T/C [18]: 44.8%; viability, T/C [19]: 85.4%; viability, T/C [20]: 87.9%; viability, T/C [21]: 77.9%; viability, T/C [22]: 61.2%; viability, T/C [23]: 55.2%; viability, T/C [24]: 33.7%; viability, T/C [25]: 42.1%; viability, T/C [26]: 60.6%; viability, T/C [27]: 58.6%; viability, T/C [28]: 43.5%; viability, T/C [29]: 38.3%; viability, T/C [30]: 33.7%
